Test results taken from patent US5569654A, “Benzodiazepinones” (Glaxo Group Limited, priority 1992, dated 1996).

target: T1, CCK-B receptor (Cavia porcellus, UniProt H0VZC5); experiment: CCK-B receptor binding affinity (guinea pig cortex assay); details: not given
T1 construct: guinea pig cortex assay; from tissue; host or cells: guinea pig cortex
T1 sequence (H0VZC5 1-426): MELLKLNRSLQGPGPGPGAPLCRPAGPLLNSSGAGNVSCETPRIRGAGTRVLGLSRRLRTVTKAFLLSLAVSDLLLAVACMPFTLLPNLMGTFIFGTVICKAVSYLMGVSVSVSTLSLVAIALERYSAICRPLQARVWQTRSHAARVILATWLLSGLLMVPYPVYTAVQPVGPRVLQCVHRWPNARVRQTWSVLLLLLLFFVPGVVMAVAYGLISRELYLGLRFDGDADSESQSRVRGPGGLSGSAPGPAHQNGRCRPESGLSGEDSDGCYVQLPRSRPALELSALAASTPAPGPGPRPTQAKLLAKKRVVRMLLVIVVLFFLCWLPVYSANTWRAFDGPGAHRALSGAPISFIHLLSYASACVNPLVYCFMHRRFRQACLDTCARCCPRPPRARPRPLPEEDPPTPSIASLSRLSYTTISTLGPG
Procedure: The affinity of the compound of the invention for the CCK-B receptor has also been determined using the guinea pig codex assay as described by G Dal Fornoto et al J. Pharmacol Exp. Ther., 261 1056-1063, 1992.
The binding affinity of the compounds of the invention for the CCK-B receptor (guinea pig cortex assay) was determined using the procedure of G Dal Forno et al J. Pharmacol. Exp & Ther. 261--1056-1063. The pKi values determined with respresentative compounds of invention were as follows: […]

SMILES | Ki [nM]
COc1cccc(NC(=O)NC2N=C(CN3CCOCC3)c3ccccc3N(CC(=O)N(C)c3ccccc3)C2=O)c1 (stereo not shown) [Example 9, 2-{3-[3-(3-Methoxy-phenyl)-ureido]-5-morpholin-4-ylmethyl-2-oxo-2,3-dihydro-benzo[e][1,4]diazepin-1-yl}-N-methyl-N-phenyl-acetamide] | 1.26
CN(C(=O)CN1C(=O)C(NC(=O)Nc2cccc(C#N)c2)N=C(CN2CCCC2)c2ccccc21)c1ccccc1 (stereo not shown) [Example 2, 2-{3-[3-(3-Cyano-phenyl)-ureido]-2-oxo-5-pyrrolidin-1-ylmethyl-2,3-dihydro-[e][1,4]diazepin-1-yl}-N-methyl-N-phenyl-acetamide] | 3.98
COc1cccc(NC(=O)NC2N=C(CN3CCOCC3)c3ccccc3N(CC(=O)N(C)c3ccccc3)C2=O)c1 (single isomer, unassigned; (+)) [Example 14, (+)-2-{3-[3-(3-Methoxy-phenyl)-ureido]-5-morpholin-4-ylmethyl-2-oxo-2.3-dihydro-benzo [e][1,4]diazepin-1-yl}-N-methyl-N-phenyl-acetamide] | 1
CN(C(=O)CN1C(=O)C(NC(=O)Nc2ccccc2)N=C(CN2CCOCC2)c2ccccc21)c1ccccc1 (stereo not shown) [Example 10, N-Methyl-2-[5-morpholin-4-ylmethyl-2-oxo-3-(3-phenyl-ureido)-2,3-dihydro-benzo[e][1,4]diazepin-1-yl]-N-methyl-N-phenyl-acetamide] | 0.794
CN(C(=O)CN1C(=O)C(NC(=O)Nc2cccc(N)c2)N=C(CN2CCOCC2)c2ccccc21)c1ccccc1 (stereo not shown) [Example 13, 2-{3-[3-(3-Amino-phenyl)-ureido]-5-morpholin-4-ylmethyl-2-oxo-2,3-dihydro-benzo[e][1,4]diazepin-1-yl}-N-methyl-N-phenyl-acetamide] | 6.31
CN(C(=O)CN1C(=O)C(NC(=O)Nc2cccc(C(F)(F)F)c2)N=C(CN2CCOCC2)c2ccccc21)c1ccccc1 (stereo not shown) [Example 11, N-Methyl-2-{5-morpholin-4-ylmethyl-2-oxo-3-[3-(3-trifluoromethyl-phenyl)-ureido]-2,3-dihydro-benzo[e][1,4]diazepin-1-yl}-N-phenyl-acetamide] | 0.501
COc1cccc(NC(=O)NC2N=C(CCN(C)C)c3ccccc3N(CC(=O)N(C)c3ccccc3)C2=O)c1 (stereo not shown) [Example 17] | 2.51
CCN(C(=O)CN1C(=O)C(NC(=O)Nc2cccc(C#N)c2)N=C(CN2CCOCC2)c2ccccc21)c1ccccc1 (stereo not shown) [Example 7, 2-{3-[3-(3-Cyano-phenyl)-ureido]-5-morpholin-4-ylmethyl-2-oxo-2,3-dihydro-benzo[e][1,4]diazepin-1yl}-N-ethyl-N-phenyl-acetamide] | 1.58
CN(C(=O)CN1C(=O)C(NC(=O)Nc2cccc(C#N)c2)N=C(CN2CCOCC2)c2ccccc21)c1ccc(F)cc1 (stereo not shown) [Example 6, 2-{3-[3-(3-Cyano-phenyl)-ureido]-5-morpholin-4-ylmethyl-2-oxo-2,3-dihydro-benzo-[e][1,4]diazepin-1-yl}-N-(4-fluoro-phenyl)-N-methyl-acetamide] | 2
CN(C(=O)CN1C(=O)C(NC(=O)Nc2cccc(C#N)c2)N=C(CN2CCSCC2)c2ccccc21)c1ccccc1 (stereo not shown) [Example 4, 2-{3-[3-(3-Cyano-phenyl)-ureido]-2-oxo-5-[1,4]thiazinan-4-ylmethyl-2,3-dihydro-benzo[e][1,4]diazepin-1-y}-N-methyl-N-phenyl-acetamide] | 1.58
C[C@@H]1CC[C@H](C)N1C(=O)CN1C(=O)C(NC(=O)Nc2cccc(C#N)c2)N=C(CN2CCOCC2)c2ccccc21 (stereo partly shown) [Example 5] | 3.16
CC(C)NCC1=NC(NC(=O)Nc2cccc(C#N)c2)C(=O)N(CC(=O)N(C)c2ccccc2)c2ccccc21 (stereo not shown) [Example 3, 2-{-[3-(3-Cyano-phenyl)ureido]-5-(isopropylamino-methyl)-2-oxo-2,3-dihydro-benzo-[e][1,4]diazepin-1-yl}-N-methyl-N-phenyl-acetamide] | 2.51
CN(C(=O)CN1C(=O)C(NC(=O)Nc2cccc(C#N)c2)N=C(CN2CCCCC2)c2ccccc21)c1ccccc1 (stereo not shown) [Example 1, 2-{3-[3-(3-Cyano-phenyl)-ureido]-2-oxo-5-piperidin-1-ylmethyl-2,3-dihydro-benzo-[e][4.1]diazepin-1-yl}-N-methyl-N-phenyl-acetamide] | 1
CC(C)(C)C(=O)CN1C(=O)C(NC(=O)Nc2cccc(C#N)c2)N=C(CN2CCOCC2)c2ccccc21 (stereo not shown) [Example 8, 1-(3-Cyano-phenyl)-3-[1-(3,3-dimethyl-2-oxo-butyl)-5-morpholin-4-ylmethyl-2-oxo-2,3-dihydro-1H-benzo[e][1,4]diazepin-3-yl]-urea] | 1.58
O=C(Nc1cccc(-c2cnco2)c1)NC1N=C(CN2CCOCC2)c2ccccc2N(CC(=O)N2CCCC2)C1=O (stereo not shown) [Example 19, 1-[5-(Morpholin-4-yl-methyl)-2-oxo-1-(2-oxo-2-pyrrolidin-1-yl-ethyl)-2,3-dihydro-benzo[e][1,4]diazepin-3-yl]-3-(3-oxazol-5-yl-phenyl)-urea] | 3.16
CN(C(=O)CN1C(=O)C(NC(=O)Nc2cccc(C#N)c2)N=C(CN2CCOCC2)c2ccccc21)c1ccccc1 (stereo not shown) [Example 18, 2-{3-[3-(3-Cyano-phenyl)-ureido]-5-morpholin-4-ylmethyl-2-oxo-2,3-dihydro-benzo [e][1,4]diazepin-1-yl}-N-methyl-N-phenyl-acetamide] | 1.26
CN1CCN(CC2=NC(NC(=O)Nc3cccc(C#N)c3)C(=O)N(CC(=O)N(C)c3ccccc3)c3ccccc32)CC1 (stereo not shown) [Example 16, 2-{3-[3-(3-Cyano-phenyl)-ureido]-5-(4-methyl-piperazin-1-ylmethyl)-2-oxo-2,3-dihydro-benzo[e][1,4]diazepin-1-yl}-N-methyl-N-phenyl-acetamide] | 5.01

tested on: dogs; experiment: tolerability in dogs; format: in vivo; details: doses at which the compound exhibits CCK-B antagonist activity
Description: (§1) The compounds of the invention are essentially non-toxic and therapeutically useful doses.

SMILES | untoward effects in dogs
COc1cccc(NC(=O)NC2N=C(CN3CCOCC3)c3ccccc3N(CC(=O)N(C)c3ccccc3)C2=O)c1 (single isomer, unassigned; (+)) [Example 14, (+)-2-{3-[3-(3-Methoxy-phenyl)-ureido]-5-morpholin-4-ylmethyl-2-oxo-2.3-dihydro-benzo [e][1,4]diazepin-1-yl}-N-methyl-N-phenyl-acetamide] | no untoward effects were observed

tested on: rats; experiment: tolerability in rats; format: in vivo; details: doses at which the compound exhibits CCK-B antagonist activity
Description: as §1

SMILES | untoward effects in rats
COc1cccc(NC(=O)NC2N=C(CN3CCOCC3)c3ccccc3N(CC(=O)N(C)c3ccccc3)C2=O)c1 (single isomer, unassigned; (+)) [Example 14, (+)-2-{3-[3-(3-Methoxy-phenyl)-ureido]-5-morpholin-4-ylmethyl-2-oxo-2.3-dihydro-benzo [e][1,4]diazepin-1-yl}-N-methyl-N-phenyl-acetamide] | no untoward effects were observed
